In brackets after ≈: the same amount, converted by molar mass.
Legend:
Type in all cases: functional
[1] = system: Staphylococcus; test: Compound was tested for antibacterial activity against Staphylococcus organism
[2] = system: Escherichia coli; test: Compound was tested for antibacterial activity against Escherichia coli organism
[3] = system: Pseudomonas; test: Compound was tested for antibacterial activity against Pseudomonas organism

**Q.** How did the MIC [1] turn out when CCN(CC)CC[C@@H]1NC(=O)[C@H](CCN)NC(=O)[C@H](CC(C)C)NC(=O)[C@@H](Cc2ccccc2)NC(=O)[C@H](CCN)NC(=O)[C@@H](NC(=O)[C@H](CCN)NC(=O)[C@@H](NC(=O)[C@H](CCN)NC(=O)CCCCC(C)C)[C@@H](C)O)CCNC(=O)[C@H]([C@@H](C)O)NC1=O was run?
**A.** 9.5 mg/L (≈ 7.63 µM)

**Q.** And the MIC [2]?
**A.** 0.995 mg/L (≈ 0.799 µM)

**Q.** And the MIC [3]?
**A.** 0.763 mg/L (≈ 0.613 µM)

**Q.** With CC(C)CCCCC(=O)N[C@@H](CCN)C(=O)N[C@H](C(=O)N[C@@H](CCN)C(=O)N[C@H]1CCNC(=O)[C@H]([C@@H](C)O)NC(=O)[C@H](CCNC(=O)[C@@H](N)CCCCN)NC(=O)[C@H](CCN)NC(=O)[C@H](CC(C)C)NC(=O)[C@@H](Cc2ccccc2)NC(=O)[C@H](CCN)NC1=O)[C@@H](C)O as the compound, how does the MIC [1] read?
**A.** 2.8 mg/L (≈ 2.13 µM)

**Q.** And the MIC [2]?
**A.** 0.173 mg/L (≈ 0.131 µM)

**Q.** What about the MIC [3] of the same compound?
**A.** 0.032 mg/L (≈ 0.0243 µM)

**Q.** How did the MIC [1] turn out when CC(=O)NCC[C@H](NC(=O)CCCCC(C)C)C(=O)N[C@H](C(=O)N[C@@H](CCN)C(=O)N[C@H]1CCNC(=O)[C@H]([C@@H](C)O)NC(=O)[C@H](CCN)NC(=O)[C@H](CCN)NC(=O)[C@H](CC(C)C)NC(=O)[C@@H](Cc2ccccc2)NC(=O)[C@H](CCN)NC1=O)[C@@H](C)O was run?
**A.** 2.8 mg/L (≈ 2.27 µM)

**Q.** And the MIC [2]?
**A.** 1.3 mg/L (≈ 1.06 µM)

**Q.** And the MIC [3]?
**A.** 2.8 mg/L (≈ 2.27 µM)

**Q.** CC(C)CCCCC(=O)N[C@@H](CCN)C(=O)N[C@H](C(=O)N[C@@H](CCN)C(=O)N[C@H]1CCNC(=O)[C@H]([C@@H](C)O)NC(=O)[C@H](CCNC(=O)[C@@H](N)CS)NC(=O)[C@H](CCN)NC(=O)[C@H](CC(C)C)NC(=O)[C@@H](Cc2ccccc2)NC(=O)[C@H](CCN)NC1=O)[C@@H](C)O was tested. Which MIC [1] did it give?
**A.** 11.3 mg/L (≈ 8.75 µM)

**Q.** What about the MIC [2] of the same compound?
**A.** 1.68 mg/L (≈ 1.3 µM)

**Q.** What about the MIC [3] of the same compound?
**A.** 2.82 mg/L (≈ 2.18 µM)

**Q.** CCNCC[C@@H]1NC(=O)[C@H](CCN)NC(=O)[C@H](CC(C)C)NC(=O)[C@@H](Cc2ccccc2)NC(=O)[C@H](CCN)NC(=O)[C@@H](NC(=O)[C@H](CCN)NC(=O)[C@@H](NC(=O)[C@H](CCN)NC(=O)CCCCC(C)C)[C@@H](C)O)CCNC(=O)[C@H]([C@@H](C)O)NC1=O was tested. Which MIC [1] did it give?
**A.** 9.5 mg/L (≈ 7.8 µM)

**Q.** What about the MIC [2] of the same compound?
**A.** 0.492 mg/L (≈ 0.404 µM)

**Q.** What about the MIC [3] of the same compound?
**A.** 0.413 mg/L (≈ 0.339 µM)

**Q.** Which MIC [1] does the source give for CC(C)CCCCC(=O)N[C@@H](CCNC(=O)[C@@H](N)CCCN=C(N)N)C(=O)N[C@H](C(=O)N[C@@H](CCN)C(=O)N[C@H]1CCNC(=O)[C@H]([C@@H](C)O)NC(=O)[C@H](CCN)NC(=O)[C@H](CCN)NC(=O)[C@H](CC(C)C)NC(=O)[C@@H](Cc2ccccc2)NC(=O)[C@H](CCN)NC1=O)[C@@H](C)O here?
**A.** 4.48 mg/L (≈ 3.33 µM)

**Q.** What about the MIC [2] of the same compound?
**A.** 0.453 mg/L (≈ 0.337 µM)

**Q.** What about the MIC [3] of the same compound?
**A.** 0.207 mg/L (≈ 0.154 µM)

**Q.** Which results are given for CC(C)CCCCC(=O)N[C@@H](CCN)C(=O)N[C@H](C(=O)N[C@@H](CCN)C(=O)N[C@H]1CCNC(=O)[C@H]([C@@H](C)O)NC(=O)[C@H](CCN(CC(=O)O)CC(=O)O)NC(=O)[C@H](CCN)NC(=O)[C@H](CC(C)C)NC(=O)[C@@H](Cc2ccccc2)NC(=O)[C@H](CCN)NC1=O)[C@@H](C)O?
**A.** MIC [1]: 22.6 mg/L (≈ 17.3 µM); MIC [2]: 1.19 mg/L (≈ 0.911 µM); MIC [3]: 0.318 mg/L (≈ 0.244 µM)

**Q.** With CC(C)CCCCC(=O)N[C@@H](CCN)C(=O)N[C@H](C(=O)N[C@@H](CCN)C(=O)N[C@H]1CCNC(=O)[C@H]([C@@H](C)O)NC(=O)[C@H](CCNC(=O)C(Cl)Cl)NC(=O)[C@H](CCN)NC(=O)[C@H](CC(C)C)NC(=O)[C@@H](Cc2ccccc2)NC(=O)[C@H](CCN)NC1=O)[C@@H](C)O as the compound, how does the MIC [1] read?
**A.** 0.82 mg/L (≈ 0.631 µM)

**Q.** What about the MIC [2] of the same compound?
**A.** 1.54 mg/L (≈ 1.18 µM)

**Q.** And the MIC [3]?
**A.** 0.995 mg/L (≈ 0.765 µM)

**Q.** What does the source list for CC(C)CCCCC(=O)N[C@@H](CCN)C(=O)N[C@H](C(=O)N[C@@H](CCN)C(=O)N[C@H]1CCNC(=O)[C@H]([C@@H](C)O)NC(=O)[C@H](CCN(C)C)NC(=O)[C@H](CCN)NC(=O)[C@H](CC(C)C)NC(=O)[C@@H](Cc2ccccc2)NC(=O)[C@H](CCN)NC1=O)[C@@H](C)O?
**A.** MIC [1]: 16 mg/L (≈ 13.1 µM); MIC [2]: 0.537 mg/L (≈ 0.441 µM); MIC [3]: 0.456 mg/L (≈ 0.375 µM)

**Q.** Which MIC [1] does the source give for CC(C)CCCCC(=O)N[C@@H](CCN)C(=O)N[C@H](C(=O)N[C@@H](CCN)C(=O)N[C@H]1CCNC(=O)[C@H]([C@@H](C)O)NC(=O)[C@H](CCNC(=O)[C@@H](N)CCC/N=C(/N)N[N+](=O)[O-])NC(=O)[C@H](CCN)NC(=O)[C@H](CC(C)C)NC(=O)[C@@H](Cc2ccccc2)NC(=O)[C@H](CCN)NC1=O)[C@@H](C)O here?
**A.** 1.2 mg/L (≈ 0.863 µM)

**Q.** What about the MIC [2] of the same compound?
**A.** 1.3 mg/L (≈ 0.935 µM)

**Q.** What about the MIC [3] of the same compound?
**A.** 2.6 mg/L (≈ 1.87 µM)

**Q.** For CSCC[C@H](N)C(=O)NCC[C@@H]1NC(=O)[C@H](CCN)NC(=O)[C@H](CC(C)C)NC(=O)[C@@H](Cc2ccccc2)NC(=O)[C@H](CCN)NC(=O)[C@@H](NC(=O)[C@H](CCN)NC(=O)[C@@H](NC(=O)[C@H](CCN)NC(=O)CCCCC(C)C)[C@@H](C)O)CCNC(=O)[C@H]([C@@H](C)O)NC1=O, which MIC [1] is on record?
**A.** 5.65 mg/L (≈ 4.28 µM)

**Q.** What about the MIC [2] of the same compound?
**A.** 0.77 mg/L (≈ 0.583 µM)

**Q.** What about the MIC [3] of the same compound?
**A.** 0.416 mg/L (≈ 0.315 µM)

**Q.** CC(C)CCCCC(=O)N[C@@H](CCN)C(=O)N[C@H](C(=O)N[C@@H](CCN)C(=O)N[C@H]1CCNC(=O)[C@H]([C@@H](C)O)NC(=O)[C@H](CCNC(=O)CO)NC(=O)[C@H](CCN)NC(=O)[C@H](CC(C)C)NC(=O)[C@@H](Cc2ccccc2)NC(=O)[C@H](CCN)NC1=O)[C@@H](C)O was tested. Which MIC [1] did it give?
**A.** 22.6 mg/L (≈ 18.1 µM)

**Q.** And the MIC [2]?
**A.** 1.54 mg/L (≈ 1.23 µM)

**Q.** What about the MIC [3] of the same compound?
**A.** 1.53 mg/L (≈ 1.23 µM)

**Q.** Which results are given for CCN(CC)CC[C@H](NC(=O)CCCCC(C)C)C(=O)N[C@H](C(=O)N[C@@H](CCN)C(=O)N[C@H]1CCNC(=O)[C@H]([C@@H](C)O)NC(=O)[C@H](CCN)NC(=O)[C@H](CCN)NC(=O)[C@H](CC(C)C)NC(=O)[C@@H](Cc2ccccc2)NC(=O)[C@H](CCN)NC1=O)[C@@H](C)O?
**A.** MIC [1]: 2.4 mg/L (≈ 1.93 µM); MIC [2]: 0.208 mg/L (≈ 0.167 µM); MIC [3]: 0.206 mg/L (≈ 0.165 µM)

**Q.** What does the source list for CC(C)CCCCC(=O)N[C@@H](CCN)C(=O)N[C@H](C(=O)N[C@@H](CCN)C(=O)N[C@H]1CCNC(=O)[C@H]([C@@H](C)O)NC(=O)[C@H](CCNC(=O)CCl)NC(=O)[C@H](CCN)NC(=O)[C@H](CC(C)C)NC(=O)[C@@H](Cc2ccccc2)NC(=O)[C@H](CCN)NC1=O)[C@@H](C)O?
**A.** MIC [1]: 9.5 mg/L (≈ 7.5 µM); MIC [2]: 0.454 mg/L (≈ 0.359 µM); MIC [3]: 0.085 mg/L (≈ 0.0671 µM)

**Q.** Which results are given for CCNCC[C@H](NC(=O)CCCCC(C)C)C(=O)N[C@H](C(=O)N[C@@H](CCN)C(=O)N[C@H]1CCNC(=O)[C@H]([C@@H](C)O)NC(=O)[C@H](CCN)NC(=O)[C@H](CCN)NC(=O)[C@H](CC(C)C)NC(=O)[C@@H](Cc2ccccc2)NC(=O)[C@H](CCN)NC1=O)[C@@H](C)O?
**A.** MIC [1]: 2.3 mg/L (≈ 1.89 µM); MIC [2]: 0.112 mg/L (≈ 0.092 µM); MIC [3]: 0.146 mg/L (≈ 0.12 µM)

**Q.** How did the MIC [1] turn out when CCC(C)CCCCC(=O)NCC[C@@H]1NC(=O)[C@H](CCN)NC(=O)[C@H](CC(C)C)NC(=O)[C@@H](Cc2ccccc2)NC(=O)[C@H](CCN)NC(=O)[C@@H](NC(=O)[C@H](CCN)NC(=O)[C@@H](NC(=O)[C@H](CCN)NC(=O)CCCCC(C)C)[C@@H](C)O)CCNC(=O)[C@H]([C@@H](C)O)NC1=O (stereo partly drawn) was run?
**A.** 0.7 mg/L (≈ 0.526 µM)

**Q.** And the MIC [2]?
**A.** 3.1 mg/L (≈ 2.33 µM)

**Q.** And the MIC [3]?
**A.** 2.18 mg/L (≈ 1.64 µM)
